# Biological target: T1, h-GABAA α5β2γ1 (Homo sapiens, UniProt P31644+Q8N1C3)
# T1 construct: expressed in transfected cells; host or cells: HEK293F cells (ThermoFisher R79007), membranes
# T1 sequence (P31644 32-462): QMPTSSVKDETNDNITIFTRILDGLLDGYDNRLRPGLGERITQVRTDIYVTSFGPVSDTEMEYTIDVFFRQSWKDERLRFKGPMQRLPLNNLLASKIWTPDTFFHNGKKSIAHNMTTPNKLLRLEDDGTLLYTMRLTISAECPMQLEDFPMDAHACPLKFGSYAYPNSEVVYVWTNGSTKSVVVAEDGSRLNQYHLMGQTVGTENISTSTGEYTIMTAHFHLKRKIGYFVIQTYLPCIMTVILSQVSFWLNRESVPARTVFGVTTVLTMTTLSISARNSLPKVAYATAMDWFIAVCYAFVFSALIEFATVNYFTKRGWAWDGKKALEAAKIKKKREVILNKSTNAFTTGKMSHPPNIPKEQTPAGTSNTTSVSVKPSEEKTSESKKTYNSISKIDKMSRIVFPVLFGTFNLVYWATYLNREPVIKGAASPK
# T1 sequence (P47870 25-512 partner limits assumed): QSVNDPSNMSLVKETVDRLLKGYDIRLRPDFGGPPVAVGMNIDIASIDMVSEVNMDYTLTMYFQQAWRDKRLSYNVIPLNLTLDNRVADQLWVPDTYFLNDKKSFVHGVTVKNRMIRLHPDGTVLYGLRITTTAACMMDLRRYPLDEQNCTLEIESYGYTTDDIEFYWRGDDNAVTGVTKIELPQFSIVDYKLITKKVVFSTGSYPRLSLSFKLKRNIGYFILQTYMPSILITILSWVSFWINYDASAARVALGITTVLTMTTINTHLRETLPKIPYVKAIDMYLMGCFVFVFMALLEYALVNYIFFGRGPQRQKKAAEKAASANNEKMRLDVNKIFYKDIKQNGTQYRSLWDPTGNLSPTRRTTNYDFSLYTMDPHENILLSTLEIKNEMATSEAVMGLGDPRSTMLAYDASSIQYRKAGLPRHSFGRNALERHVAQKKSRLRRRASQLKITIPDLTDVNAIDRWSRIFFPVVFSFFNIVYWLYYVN
# T1 sequence (Q8N1C3 36-465): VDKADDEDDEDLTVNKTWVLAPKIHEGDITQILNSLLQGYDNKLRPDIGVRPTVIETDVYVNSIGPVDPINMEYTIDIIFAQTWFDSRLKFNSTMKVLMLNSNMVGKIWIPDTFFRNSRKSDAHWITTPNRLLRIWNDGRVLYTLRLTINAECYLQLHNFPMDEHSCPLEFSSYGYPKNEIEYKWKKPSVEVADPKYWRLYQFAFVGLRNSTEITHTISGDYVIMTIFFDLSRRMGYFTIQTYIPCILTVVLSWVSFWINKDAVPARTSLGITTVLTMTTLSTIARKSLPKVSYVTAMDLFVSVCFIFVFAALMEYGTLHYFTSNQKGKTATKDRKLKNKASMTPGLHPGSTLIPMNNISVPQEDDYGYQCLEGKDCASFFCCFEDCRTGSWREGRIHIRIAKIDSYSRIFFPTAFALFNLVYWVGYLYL
# Test: Radioligand binding assay, [3H]RO7239181 competition, HEK293F membranes
# Outline: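 Competition for [3H]RO7239181 (1.5 nM) binding to membranes from HEK293F cells transiently expressing human α5β2γ1 receptors. Compounds tested at 0.3–10000 nM; nonspecific binding defined with 10 μM RO7235136. Incubation 1 h at 4 °C in 10 mM KPi/100 mM KCl, pH 7.4; filtration, scintillation counting; Ki as mean of two determinations.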
row,Compound,Ki [nM]
1,"Fc1cccnc1C1=NCc2nncn2-c2ccc(Cl)c(Cl)c21 [Example 60, 7,8-dichloro-6-(3-fluoro-2-pyridyl)-4H-[1,2,4]triazolo[4,3-a][1,4]benzodiazepine]",7.5
2,"COc1ccc2c(c1Cl)C(c1c(F)cccc1F)=NCc1nnc(-c3ccncn3)n1-2 [Example 61, 7-chloro-6-(2,6-difluorophenyl)-8-methoxy-1-pyrimidin-4-yl-4H-[1,2,4]triazolo[4,3-a][1,4]benzodiazepine]",4.2
3,"COc1ccc2c(c1Cl)C(c1c(F)cccc1F)=NCc1nnc(-c3cccnc3)n1-2 [Example 62, 7-chloro-6-(2,6-difluorophenyl)-8-methoxy-1-(3-pyridyl)-4H-[1,2,4]triazolo[4,3-a][1,4]benzodiazepine]",4
4,"Fc1cccnc1C1=NCc2nnc(C3CC3)n2-c2ccc(Cl)c(Cl)c21 [Example 65, 7,8-dichloro-1-cyclopropyl-6-(3-fluoro-2-pyridyl)-4H-[1,2,4]triazolo[4,3-a][1,4]benzodiazepine]",7.8
5,"Fc1cccnc1C1=NCc2nnc(-c3ccncn3)n2-c2ccc(C(F)(F)F)c(Cl)c21 [Example 69, 7-chloro-6-(3-fluoro-2-pyridyl)-1-pyrimidin-4-yl-8-(trifluoromethyl)-4H-[1,2,4]triazolo[4,3-a][1,4]benzodiazepine]",7.1
6,"Cn1cc(-c2nnc3n2-c2ccc(C(F)(F)F)c(Cl)c2C(c2ncccc2F)=NC3)cn1 [Example 70, 7-chloro-6-(3-fluoro-2-pyridyl)-1-(1-methylpyrazol-4-yl)-8-(trifluoromethyl)-4H-[1,2,4]triazolo[4,3-a][1,4]benzodiazepine]",6.8
7,"Cc1nnc2n1-c1ccc(Cl)c(Cl)c1C(c1ncccc1F)=NC2 [Example 71, 7,8-dichloro-6-(3-fluoro-2-pyridyl)-1-methyl-4H-[1,2,4]triazolo[4,3-a][1,4]benzodiazepine]",5.7
8,"Fc1cccnc1C1=NCc2nnc(-c3cccnn3)n2-c2ccc(C(F)(F)F)c(Cl)c21 [Example 72, 7-chloro-6-(3-fluoro-2-pyridyl)-1-pyridazin-3-yl-8-(trifluoromethyl)-4H-[1,2,4]triazolo[4,3-a][1,4]benzodiazepine]",5.4
9,"Fc1cccnc1C1=NCc2nnc(C3CC3)n2-c2ccc(Br)c(Cl)c21 [Example 77, 8-bromo-7-chloro-1-cyclopropyl-6-(3-fluoro-2-pyridyl)-4H-[1,2,4]triazolo[4,3-a][1,4]benzodiazepine]",2.8
10,"Cc1nnc2n1-c1ccc(C(F)(F)F)c(Cl)c1C(c1ncccc1F)=NC2 [Example 78, 7-chloro-6-(3-fluoro-2-pyridyl)-1-methyl-8-(trifluoromethyl)-4H-[1,2,4]triazolo[4,3-a][1,4]benzodiazepine]",7.8
11,"COc1ccc2c(c1Cl)C(c1c(F)cccc1F)=NCc1nnc(C3CC3)n1-2 [Example 79, 7-chloro-1-cyclopropyl-6-(2,6-difluorophenyl)-8-methoxy-4H-[1,2,4]triazolo[4,3-a][1,4]benzodiazepine]",6.8
12,"COc1nnc2n1-c1ccc(Cl)c(Cl)c1C(c1c(F)cccc1F)=NC2 [Example 90, 7,8-dichloro-6-(2,6-difluorophenyl)-1-methoxy-4H-[1,2,4]triazolo[4,3-a][1,4]benzodiazepine]",1
13,"CO[C@H]1C[C@H](c2nnc3n2-c2ccc(Cl)c(Cl)c2C(c2c(F)cccc2F)=NC3)C1 [Example 91, trans-7,8-dichloro-6-(2,6-difluorophenyl)-1-(3-methoxycyclobutyl)-4H-[1,2,4]triazolo[4,3-a][1,4]benzodiazepine]",3.1
14,"Fc1cccc(F)c1C1=NCc2nnc(-c3cccnn3)n2-c2ccc(Br)c(Cl)c21 [Example 104, 8-bromo-7-chloro-6-(2,6-difluorophenyl)-1-pyridazin-3-yl-4H-[1,2,4]triazolo[4,3-a][1,4]benzodiazepine]",0.6

# From patent US20230141603A1, “BENZODIAZEPINE DERIVATIVES AS GABA A GAMMA1 PAM” (Hoffmann-La Roche Inc., priority 2021, published 2023)
